Results published in article PMC4411097, “Pachymic Acid Inhibits Growth and Induces Apoptosis of Pancreatic Cancer In Vitro and In Vivo by Targeting ER Stress” (PLoS ONE, 2015).

Tested on: MIA PaCa-2 cells
Test: DNA microarray analysis (Affymetrix Human PrimeView)
Assay type: cell-based

## C=C(CC[C@@H](C(=O)O)[C@H]1[C@H](O)C[C@@]2(C)C3=C(CC[C@]12C)[C@@]1(C)CC[C@H](OC(C)=O)C(C)(C)[C@@H]1CC3)C(C)C [PA, Pachymic acid]
Probeset 11729120_x_at
  Fold-Change (MiaPaca-2 * PA vs. MiaPaca-2 * control), HSPA1B: 1.90
  Mean (MiaPaca-2 * PA), HSPA1B: 11.15
Probeset 11730923_x_at
  Fold-Change (MiaPaca-2 * PA vs. MiaPaca-2 * control), ADAMTS4: 2.20
  Mean (MiaPaca-2 * PA), ADAMTS4: 8.77
Probeset 11733797_a_at
  Fold-Change (MiaPaca-2 * PA vs. MiaPaca-2 * control), RCAN1: 1.68
  Mean (MiaPaca-2 * PA), RCAN1: 9.17
Probeset 11735148_a_at
  Fold-Change (MiaPaca-2 * PA vs. MiaPaca-2 * control), SOCS2: 1.78
  Mean (MiaPaca-2 * PA), SOCS2: 6.08
Probeset 11736304_a_at
  Fold-Change (MiaPaca-2 * PA vs. MiaPaca-2 * control), C17orf91: 1.70
  Mean (MiaPaca-2 * PA), C17orf91: 6.00
Probeset 11736305_x_at
  Fold-Change (MiaPaca-2 * PA vs. MiaPaca-2 * control), C17orf91: 1.71
  Mean (MiaPaca-2 * PA), C17orf91: 6.44
Probeset 11737922_a_at
  Fold-Change (MiaPaca-2 * PA vs. MiaPaca-2 * control), SERPINB8: 2.08
  Mean (MiaPaca-2 * PA), SERPINB8: 8.90
Probeset 11739443_a_at
  Fold-Change (MiaPaca-2 * PA vs. MiaPaca-2 * control), FLJ36031: 1.69
  Mean (MiaPaca-2 * PA), FLJ36031: 6.38
Probeset 11740393_at
  Fold-Change (MiaPaca-2 * PA vs. MiaPaca-2 * control), TNFRSF9: 2.27
  Mean (MiaPaca-2 * PA), TNFRSF9: 8.01
Probeset 11741911_a_at
  Fold-Change (MiaPaca-2 * PA vs. MiaPaca-2 * control), GBP3: 1.86
  Mean (MiaPaca-2 * PA), GBP3: 6.08
Probeset 11744127_at
  Fold-Change (MiaPaca-2 * PA vs. MiaPaca-2 * control), CXCL2: 2.45
  Mean (MiaPaca-2 * PA), CXCL2: 10.98
Probeset 11744128_x_at
  Fold-Change (MiaPaca-2 * PA vs. MiaPaca-2 * control), CXCL2: 2.30
  Mean (MiaPaca-2 * PA), CXCL2: 11.01
Probeset 11744413_x_at
  Fold-Change (MiaPaca-2 * PA vs. MiaPaca-2 * control), HSPA1A: 2.45
  Mean (MiaPaca-2 * PA), HSPA1A: 10.47
Probeset 11745209_a_at
  Fold-Change (MiaPaca-2 * PA vs. MiaPaca-2 * control), SAMD4A: 1.79
  Mean (MiaPaca-2 * PA), SAMD4A: 6.54
Probeset 11746856_a_at
  Fold-Change (MiaPaca-2 * PA vs. MiaPaca-2 * control), SERPINE1: 1.78
  Mean (MiaPaca-2 * PA), SERPINE1: 7.81
Probeset 11747820_x_at
  Fold-Change (MiaPaca-2 * PA vs. MiaPaca-2 * control), UPP1: 1.93
  Mean (MiaPaca-2 * PA), UPP1: 8.45
Probeset 11748180_a_at
  Fold-Change (MiaPaca-2 * PA vs. MiaPaca-2 * control), SERPINB8: 2.13
  Mean (MiaPaca-2 * PA), SERPINB8: 10.10
Probeset 11748775_a_at
  Fold-Change (MiaPaca-2 * PA vs. MiaPaca-2 * control), UPP1: 1.75
  Mean (MiaPaca-2 * PA), UPP1: 10.33
Probeset 11749291_a_at
  Fold-Change (MiaPaca-2 * PA vs. MiaPaca-2 * control), FOS: 1.74
  Mean (MiaPaca-2 * PA), FOS: 6.87
Probeset 11749773_x_at
  Fold-Change (MiaPaca-2 * PA vs. MiaPaca-2 * control), GBP1: 1.92
  Mean (MiaPaca-2 * PA), GBP1: 5.41
Probeset 11749905_a_at
  Fold-Change (MiaPaca-2 * PA vs. MiaPaca-2 * control), CYR61: 2.32
  Mean (MiaPaca-2 * PA), CYR61: 9.84
Probeset 11750411_x_at
  Fold-Change (MiaPaca-2 * PA vs. MiaPaca-2 * control), HSPA1A /// HSPA1B: 2.09
  Mean (MiaPaca-2 * PA), HSPA1A /// HSPA1B: 10.73
Probeset 11752442_a_at
  Fold-Change (MiaPaca-2 * PA vs. MiaPaca-2 * control), MIR17HG: 1.88
  Mean (MiaPaca-2 * PA), MIR17HG: 6.16
Probeset 11752931_x_at
  Fold-Change (MiaPaca-2 * PA vs. MiaPaca-2 * control), GBP1: 1.83
  Mean (MiaPaca-2 * PA), GBP1: 5.47
Probeset 11752940_a_at
  Fold-Change (MiaPaca-2 * PA vs. MiaPaca-2 * control), EGR1: 1.69
  Mean (MiaPaca-2 * PA), EGR1: 10.59
Probeset 11752993_a_at
  Fold-Change (MiaPaca-2 * PA vs. MiaPaca-2 * control), DUSP1: 1.78
  Mean (MiaPaca-2 * PA), DUSP1: 7.26
Probeset 11753073_a_at
  Fold-Change (MiaPaca-2 * PA vs. MiaPaca-2 * control), TNFSF4: 1.71
  Mean (MiaPaca-2 * PA), TNFSF4: 5.89
Probeset 11753435_x_at
  Fold-Change (MiaPaca-2 * PA vs. MiaPaca-2 * control), SLC3A2: 1.69
  Mean (MiaPaca-2 * PA), SLC3A2: 8.06
Probeset 11754026_a_at
  Fold-Change (MiaPaca-2 * PA vs. MiaPaca-2 * control), IL8: 2.84
  Mean (MiaPaca-2 * PA), IL8: 11.16
Probeset 11754114_a_at
  Fold-Change (MiaPaca-2 * PA vs. MiaPaca-2 * control), CXCL1: 2.46
  Mean (MiaPaca-2 * PA), CXCL1: 11.01
Probeset 11755981_a_at
  Fold-Change (MiaPaca-2 * PA vs. MiaPaca-2 * control), HBEGF: 1.90
  Mean (MiaPaca-2 * PA), HBEGF: 4.80
Probeset 11757367_s_at
  Fold-Change (MiaPaca-2 * PA vs. MiaPaca-2 * control), HSPA6 /// HSPA7: 19.93
  Mean (MiaPaca-2 * PA), HSPA6 /// HSPA7: 9.17
Probeset 11757513_at
  Fold-Change (MiaPaca-2 * PA vs. MiaPaca-2 * control), NFKBIZ: 2.08
  Mean (MiaPaca-2 * PA), NFKBIZ: 10.08
Probeset 11758347_s_at
  Fold-Change (MiaPaca-2 * PA vs. MiaPaca-2 * control), DDIT3: 1.70
  Mean (MiaPaca-2 * PA), DDIT3: 7.10
Probeset 11758429_s_at
  Fold-Change (MiaPaca-2 * PA vs. MiaPaca-2 * control), MIR17HG: 1.80
  Mean (MiaPaca-2 * PA), MIR17HG: 4.78
Probeset 11759254_at
  Fold-Change (MiaPaca-2 * PA vs. MiaPaca-2 * control), TNFSF18: 1.84
  Mean (MiaPaca-2 * PA), TNFSF18: 8.90
Probeset 11759550_at
  Fold-Change (MiaPaca-2 * PA vs. MiaPaca-2 * control), NCRNA00275: 1.82
  Mean (MiaPaca-2 * PA), NCRNA00275: 7.61
Probeset 11760200_a_at
  Fold-Change (MiaPaca-2 * PA vs. MiaPaca-2 * control), SAT1: 1.75
  Mean (MiaPaca-2 * PA), SAT1: 6.19
Probeset 11760295_at
  Fold-Change (MiaPaca-2 * PA vs. MiaPaca-2 * control), EBNA1BP2: 1.73
  Mean (MiaPaca-2 * PA), EBNA1BP2: 4.62
Probeset 11762010_a_at
  Fold-Change (MiaPaca-2 * PA vs. MiaPaca-2 * control), GRAMD1B: 1.80
  Mean (MiaPaca-2 * PA), GRAMD1B: 7.49
Probeset 11763186_at
  Fold-Change (MiaPaca-2 * PA vs. MiaPaca-2 * control), CASP1: 1.70
  Mean (MiaPaca-2 * PA), CASP1: 5.56
Probeset 11763226_x_at
  Fold-Change (MiaPaca-2 * PA vs. MiaPaca-2 * control), IL8: 2.95
  Mean (MiaPaca-2 * PA), IL8: 11.12
Probeset 11763250_x_at
  Fold-Change (MiaPaca-2 * PA vs. MiaPaca-2 * control), CXCL1 /// CXCL2: 2.26
  Mean (MiaPaca-2 * PA), CXCL1 /// CXCL2: 10.74
Probeset 11763323_x_at
  Fold-Change (MiaPaca-2 * PA vs. MiaPaca-2 * control), GRAMD1B: 1.71
  Mean (MiaPaca-2 * PA), GRAMD1B: 6.75
